# Test results published in patent US10351566B2, “Therapeutic compounds for pain and synthesis thereof” (priority 2015, dated 2019).
# Read-outs that look alike come from different tables or passages of the source.
# Tests used:
# [1] = tested on: Taxol-induced neuropathic pain; assay: Taxol-induced neuropathic pain in mice, oral route; type: in vivo; details: oral 50 mg/kg, study day 14, repeated daily dosing day 8 to day 14
# [2] = type: in vivo, mice; details: Brain, SC, Mean
# [3] = tested on: CCI-induced neuropathic pain; assay: CCI-induced neuropathic pain in the rat, oral; type: in vivo; details: CCI rats
# Method: Study plan in brief: SD male rats were operated as described by Bennet and Xie7. On study day 7, the sensitivity of the animals to von Frey was assessed. […] The animals were then dosed with either vehicle, gabapentin or Formula 1. Treatment with Formula 1 was not effective 2 h post-single dose.
# [4] = type: in vivo; details: mice
# Method: Fecal excretion of the parent compound was evaluated following oral administration of Formula 1 in mice at a dose of 50 mg/kg and intravenous administration at a dose of 5 mg/kg. Peak concentrations in feces were 150 μg/g and 33 μg/g from oral and intravenous dosing, respectively. These peak concentrations were generally achieved within 1 h post-oral dosing and within 5 min post-intravenous doing. The concentrations remained high (greater than 1 μg/g) even after 8 h post-dosing by both administration routes (FIG. 18).
# [5] = type: in vivo, rats; details: for Findings: PO, Rat
# Method: The tolerability of Formula 1 was evaluated in mice and rats. […] The compound was also tolerated following a single dose of 100 mg/kg in the mouse.
# [6] = Tolerability / repeated dosing safety in mice; type: in vivo; details: for Findings: Mice
# Method: The tolerability of Formula 1 was evaluated in mice and rats.
# [7] = type: in vivo; details: naïve rats, dosing for 7 days
# Excerpt: At 4 days, vehicle-treated animals gained approximately 1% body weight, going from 25.24±0.74 g to 25.50±0.64 g. Formula 1 treated animals went from 25.28±1.04 g to 25.82±1.25 g.
# [8] = tested on: CCI-induced neuropathic pain; assay: Chronic constriction injury (CCI) model in mice, SC route; type: in vivo; details: for Dose of maximum activity / Duration of activity at maximum effect / Level of activity (% of maximum effect-baseline) / Peak of activity (T): CCl model, mice
# Method: Study outline in brief: The sciatic nerve of mice was exposed under anesthesia, and 3 loose ligations were placed around the nerve. Animals were allowed to recover for 3 days. Tactile allodynia (von Frey testing) and thermal (hot at 50±1° C. and cold at 2±1° C.) hyperalgesia were then assessed. Animals that experienced tactile allodynia were assigned to their treatment groups (vehicle, gabapentin and Formula 1 at different doses). Animals were subsequently treated daily for a period of 5 days with either vehicle or Formula 1 at different doses. Gabapentin at a dose of 150 mg/kg was dosed only on days of testing (day 3 and day 7).
# [9] = tested on: Taxol-induced neuropathic pain; assay: Taxol-induced neuropathic pain in the rat, per oral; type: in vivo; details: Taxol rats
# Method: Study outline in brief: Taxol was administered daily for a period of 17 days (day 0 to day 16). On day 16, the withdrawal force was evaluated using the von Fey test. The animals experienced a reduction of more than 60% in the withdrawal force following repeated Taxol dosing. After a single treatment with Formula 1 at a dose of 50 mg/kg, a full reversal was recorded, i.e. the withdrawal force was similar to the values recorded prior to Taxol dosing commencement. The duration of the analgesic activity was at least 6 h.
# [10] = tested on: CCI-induced neuropathic pain; assay: CCI model in mice, IP route; type: in vivo; details: CCl model
# Excerpt: IP route of administration was used for initial proof of principle studies with Formula 1. However, the chosen route of administration in most of the studies conducted with Formula 1 was either SC or PO. A brief protocol outline is provided in each section, for the purpose of understanding the results without elaborating on all the detailed procedures.
# Table 7 summarizes the activity of Formula 1 in mice models of neuropathic pain following repeated daily administration using different routes of administration. […] Treatment with Formula 1 show activity without CNS effect.
# [11] = type: in vivo; details: mice, 10 mg/kg IP
# Method: Mice received a 10 mg/kg IP dose of Formula 1. The animals were placed in the open field apparatus after 30 minutes (box of 0.5×0.5×0.5 m length, width and height) for a period of 5 min. The animals' walking distance and speed were evaluated and compared to the vehicle-treated group.
# [12] = type: in vivo; details: naïve mice, 10 mg/kg IP
# Method: Changes in responses of normal withdrawal threshold to heat and cold stimuli in naïve animals following drug treatment may reflect a CNS effect, as in the case of cannabinoids or opioids. Therefore, the response of the naïve mice post-Formula 1 administration at a dose of 10 mg/kg IP was assessed (Table 5).
# [13] = in vitro; type: in vitro ADME; details: 1 μM; for microsomal CLint: read-out: intrinsic clearance (CLint)
# Method: Metabolic stability studies in mouse, rat and human liver microsomes were performed at a compound concentration of 1 μM.
# [14] = 30 minutes after dosing, 5 min in open field
smiles,measurement,setting,value
"CC(C)(C)C(=O)O[C@@H]1[C@@H]2[C@H]3C[C@H](C[C@@H]1N3Cc1ccccn1)CN2C(=O)CC(F)(F)F (relative stereo) [Formula 1, (2S*,3S*,3aS*,6R*,7aR*)-1-(pyridin-2-ylmethyl)-4-(3,3,3-trifluoropropanoyl)octahydro-1H-2,6-methanopyrrolo[3,2-b]pyridin-3-yl pivalate]",withdrawal force,[1],This activity was maintained
same,HL_Lambda_z,[2],0.39 h
same,change of activity on continuous dosing,[3],increase in compound activity
same,withdrawal force (von Frey),[3]; 2 h post-single dose,not effective
same,withdrawal threshold,"[3]; daily oral 50 mg/kg, study day 11, 2 h post-treatment",significant increase in the withdrawal threshold
same,concentration in feces after 8 h post-dosing,[4]; intravenous 5 mg/kg,greater than 1 μg/g
same,peak concentration in feces,[4]; intravenous 5 mg/kg,33 µg/g
same,time to peak concentration in feces,[4]; intravenous 5 mg/kg,≤ 5 min
same,concentration in feces after 8 h post-dosing,[4]; oral 50 mg/kg,greater than 1 μg/g
same,peak concentration in feces,[4]; oral 50 mg/kg,150 µg/g
same,time to peak concentration in feces,[4]; oral 50 mg/kg,≤ 60 min
same,Findings,"[5]; 50 mg/kg, 5 days",NPF
same,Findings,"[5]; 100 mg/kg, 1 day",NPF
same,adverse effects,"[5]; rats, oral, once daily 50 mg/kg for 5 days",did not show any adverse effects
same,Findings,"[6]; IP, 10 mg/kg, 31 days",NPF
same,Findings,"[6]; IP, 30 mg/kg, 5 days",NPF
same,Findings,"[6]; PO, 50 mg/kg, 5 days",NPF
same,Findings,"[6]; SC, 60 mg/kg, 5 days",NPF
same,tolerability,"[6]; mice, 5 days intraperitoneal dosing at 30 mg/kg",well tolerated
same,tolerability,"[6]; mice, 5 days oral dosing at 50 mg/kg",well tolerated
same,tolerability,"[6]; mice, 5 days subcutaneous dosing at 60 mg/kg",well tolerated
same,tolerability,"[6]; mouse, single dose of 100 mg/kg",tolerated
same,effect on body weight gain,[7],did not affect body weight gain
same,effect on response time in the hotplate test,"[8]; CCI mice, SC",not significant
same,response time to cold stimuli,"[8]; CCI mice, SC 30 mg/kg and 60 mg/kg",increased response time to cold stimuli
same,withdrawal force (von Frey),"[8]; CCI mice, SC 60 mg/kg, daily repeated treatment",significant increase in the withdrawal force
same,time of peak activity on cold response,"[8]; CCI mice, SC, following a single dose",2 h
same,time of peak activity on cold response,"[8]; CCI mice, SC, post-dosing following repeated daily dosing",2 h
same,tolerance effect,"[8]; CCI mice, SC, repeated dosing",No tolerance effect was observed
same,Dose of maximum activity,"[8]; SC, first SC line",60 mg/kg
same,Duration of activity at maximum effect,"[8]; SC, first SC line",>4 H
same,Level of activity (% of maximum effect-baseline),"[8]; SC, first SC line",43%
same,Peak of activity (T),"[8]; SC, first SC line",2 H
same,Level of activity (% of maximum effect-baseline),"[8]; SC, second SC line (readout not given)",100%
same,Dose of maximum activity,"[8]; SC, second SC line",30 mg/kg
same,Duration of activity at maximum effect,"[8]; SC, second SC line",>4 H
same,Peak of activity (T),"[8]; SC, second SC line",2 H
same,body weight loss following Taxol dosing,[9],the rate of weight loss was reduced
same,duration of the analgesic activity,[9]; oral 50 mg/kg,at least 6 h
same,withdrawal force vs. vehicle 24 h post-dosing,[9]; oral 50 mg/kg,no significant difference
same,withdrawal force (von Frey),[9]; single oral treatment 50 mg/kg,full reversal
same,Dose of maximum activity,[10],30 mg/kg
same,Duration of activity at maximum effect,[10],>4 H
same,Peak of activity (T),[10],2 H
same,Level of activity (% of maximum effect-baseline),[10]; repeated daily administration,33%
same,walking distance and speed vs. vehicle-treated group,[11],No difference was found
same,Distance,[11]; [14],1.94 ± 0.89 m
same,Time spent in the center of the field,[11]; [14],34.82 ± 23.53 s
same,Response to cold stimuli (2 ± 1° C. ),[12],20.6 ± 11.39 s
same,Response to heat stimuli (50 ± 1° C. ),[12],12.87 ± 2.59 s
same,basal response to cold or heat stimuli,[12],not effective in altering the basal response
same,half-life,[13]; human liver microsomes,8 min
same,microsomal CLint,[13]; human liver microsomes,174 µL/min/mg
same,half-life,[13]; mouse liver microsomes,< 4 min
same,microsomal CLint,[13]; mouse liver microsomes,> 346 µL/min/mg
same,half-life,[13]; rat liver microsomes,< 4 min
same,microsomal CLint,[13]; rat liver microsomes,> 346 µL/min/mg
